The values below come from patent US20100279976A1, “USE OF ARTEMISININ AND ITS DERIVATIVES IN CANCER THERAPY” (SHANGHAI INSTITUTES FOR BIOLOGICAL SCIENCES, CAS, priority 2009, published 2010).

The subject of data set [1] is four hepatoma cell lines (HepG2, Hep3B, Huh-7, BEL-7404). As to the kind of experiment: MTT assay, mean over four hepatoma cell lines. The format is cell-based. The note with it: Homo sapiens, mean of HepG2, Hep3B, read-out: overall mean IC50 in the four hepatoma cell lines. On the procedure: The effects of ART derivatives on the viability of the aforementioned cells may be determined using the MTT assay. Briefly, 2,000 cells per well were plated in triplicate in 96-well plates. After a 24-h incubation, the cells may be treated with varying concentrations of ART derivatives (0, 1, 5, 10, 25, 50, and 100 μmol/L) for 48 h. The MTT assay may be performed according to the manufacture's instruction and the resultant formazan crystals may be dissolved in DMSO (100 μL). The absorbance may be then recorded at 540 nm. The effects of ART derivatives on cell viability may be assessed by comparing the percent cell viability of the treated cells with the vehicle (DMSO)-treated control cells, which may be arbitrarily assigned at 100% viability. The experiment may be repeated thrice under the same conditions.

Data set [2] relates to HepG2 xenograft tumors. As to the kind of experiment: HepG2 xenograft model in nude mice. It counts as in vivo. The note with it: for tumor growth inhibition: HepG2 xenograft, 5 d/wk for 4 wk. On the procedure:
(§1) Female athymic nude mice (nu/nu; 4-6 wk of age) may be obtained from Shanghai Slac Laboratory Animal Co. Ltd. All animals may be fed with commercial diet and water ad libitum. The human HCC xenograft models in mice may be as follows. Briefly, HepG2 and Hep3B cells may be re-suspended in serum-free DMEM with Matrigel basement membrane matrix at a 5:1 ratio. The cell suspension may then be injected (7×10^6 cells; total volume, 0.2 mL) into the left inguinal area of the BALB/c nude mice. The animals may be monitored for activity and physical condition everyday, and the determination of body weight and measurement of tumor mass may be done every 3 d. Tumor mass may be determined by caliper measurement in two perpendicular diameters of the implant and calculated using the formula ½a×b^2, where a stands for the long diameter and b is the short diameter. The animal use and care protocol is approved by the Institutional Review Board of the Institute for Nutritional Sciences, Chinese Academy of Sciences.
(§2) Nude mice bearing HepG2 and Hep3B xenografts, randomly divided into various treatment and control groups (five mice per group), may be treated orally with either ART or DHA suspended in 5% sesame oil+95% saline, at a dose of 50 or 100 mg/kg/d, or a combination of ART or DHA with gemcitabine or with saline (as controls). In the mice receiving combination therapy, 80 mg/kg gemcitabine, representing one fifth of the reported most tolerated dose in mice, may be administered i.p. on days 7, 11, and 15 to avoid possible side effects and to illustrate potential chemo-sensitization effects in this combination regimen.

The test system of data set [3] is Hep3B cells. As to the kind of experiment: Cell cycle analysis (propidium iodide, flow cytometry), Hep3B. The note with it: 48 h. The format is cell-based, human. As for the experimental part:
Cells (2×10^5) may be treated with ART and DHA (0, 1, 10, 25, and 50 μmol/L) as described above for 48 h. The harvested cells may be re-suspended in 200 μL of cold PBS, to which cold ethanol (600 μl) may be added, and the mixture may then be incubated for 2 h at 4° C. After centrifugation, the pellet may be washed with cold PBS, suspended in 500 μL PBS, and incubated with 50 μL RNase (20 μg/mL final concentration) for 30 min. The cells may be incubated with propidium iodide (50 μg/mL final concentration) for 30 min in the dark. The cell cycle distribution may be determined using a FACSAria instrument (BD Biosciences). The experiment may be repeated thrice under the same conditions.

Data set [4] relates to Hep3B xenograft tumors. As to the kind of experiment: Hep3B xenograft model in nude mice. It counts as in vivo. As for the experimental part: as §1, §2
The subject of data set [5] is HepG2 cells. As to the kind of experiment: Western blot of apoptosis-related proteins. It counts as cell-based, human. The note with it: HepG2, 48 h. On the procedure: Whole-cell lysates may be generated with radioimmunoprecipitation assay lysis buffer, and after centrifugation, the supernatant fraction may be collected for immunoblotting. Proteins may be resolved by SDS-PAGE and transferred onto a nitrocellulose membrane. After blocking with 5% nonfat milk in blocking buffer [20 mmol/L TBS (pH 7.5) containing 0.1% Tween 20], the membrane may be incubated with the desired primary antibody for 2 h at room temperature and then incubated with appropriate peroxidase conjugated secondary antibody. The immunoreactive bands may be visualized using the ECL Plus Western Blotting Detection System. The level of ([…] for each sample may be used as loading control. Tumor tissues may be collected at the termination of the experiment and homogenized using a homogenizer in ice-cold lysis buffer. Supernatants may be collected and used to examine the expression of different proteins by Western blot analysis.
For orientation: In western blotting, separated proteins are transferred to a membrane and probed.

For data set [6], the system named is A2780 xenograft tumors. It counts as in vivo. The note with it: for tumor growth inhibition: A2780 xenograft, 5 days/week. As for the experimental part: Four to six week old female athymic nude mice (BALB/c, nu/nu) may be purchased from Shanghai Experimental Animal Center (Shanghai, China). Animal studies are approved by the Institute for Nutritional Sciences. The tumor xenograft model may be established as follows. […] Aliquots of cells (˜5×10^6 cells/0.2 ml) may be injected subcutaneously into the left inguinal area of the mice. The tumor growth and body weight of the mice may be monitored every other day. Tumor mass may be determined. Mice bearing palpable tumors (˜70 mg) may be randomly divided into treatment and control groups n=5 mice/group). CBP may be dissolved in saline, and DHA may be dissolved in cremophor EL:ethanol:saline (5:5:90, v/v/v). DHA may be administered via i.p. injection at doses of 10 and 25 mg/kg/5 days/week for 3 weeks) alone or combined with CBP (at a single dose of 120 mg/kg, once on day 0). The control group receives saline only. Mice may be killed on day 18. Tumors may be carefully excised, trimmed of extraneous fat or connective tissue, and homogenized in RIPA buffer (100 mg tumor tissue/1 ml RIPA) and prepared for immunoblotting analysis as described above.

Data set [7] relates to A2780 cells. As to the kind of experiment: Annexin V-FITC apoptosis assay, A2780. It counts as cell-based, human. The note with it: A2780, 50 μM, 24 hrs. On the procedure: ART- and DHA-induced apoptosis alone or in combination with gemcitabine in HepG2 and Hep3B cells or in combination with carboplatin in ovarian cancer cells may be determined by flow cytometry using the Annexin V-FITC Apoptosis Detection kit following the manufacturer's instructions. […] The cells may then be harvested, washed in PBS, and incubated with Annexin V and propidium iodide for staining in binding buffer at room temperature for 10 min in the dark. The stained cells may be analyzed using the FACSAria instrument.

Where [8] appears, read: HepG2 xenograft tissue, Western blot.

pIC50: −log10 of the molar value. Like-named read-outs stand apart in the source and are kept apart here.

In the case of `C[C@@H]1CC[C@H]2[C@@H](C)C(=O)O[C@@H]3O[C@@]4(C)CC[C@@H]1[C@]32OO4` [ART, artemisinin], the pIC50 in data set [1] is 4.97. In data set [2] (setting [8]), the “G1-specific Cdks, cyclin D1, cyclin E, Cdk2, Cdk4, and E2F1 in tumor tissue” value was “decrease”; the “MDM2 in tumor tissue” value was “decrease”; the “activated caspase-3, cleaved PARP, Rb, p53, and the ratio of Bax/Bcl-2 in tumor tissue” value was “increases”; the “p21 and p27 in tumor tissue” value is “increase”. The tumor growth inhibition in data set [2] (oral 50 mg/kg/d) is on record as 30.0%. Moreover, in data set [2] (oral 100 mg/kg/d), the tumor growth inhibition turned out to be 39.4%. The “cells in the G1 phase” value in data set [3] (1 μmol/L) is 66.11%. The “cells in the G1 phase” value in data set [3] (10 μmol/L) turned out to be 67.48%. Also, the “cells in the G1 phase” value in data set [3] (25 μmol/L) was 68.70%. In addition, the “cells in the G1 phase” value in data set [3] (50 μmol/L) is given as 62.99%. Also, in data set [4] (Hep3B xenograft, oral 50 and 100 mg/kg/d, alone), the “effect on tumor growth” value is “slight inhibitory effect on tumor growth”. For the same compound, the “toxic effects (body weight)” value in data set [4] (mouse, in vivo) was “Neither compound causes any observable toxic effects”. Besides, in data set [5], the MDM2 level entry is on record as “decrease”; the “cleavage of caspase-3 and PARP” value was “dose-dependent increase”; the “level of Bax” value is on record as “concomitant increase”; the “level of Bcl-2 protein” value is recorded as “dose-dependent reduction”. Further, the p53 level entry in data set [5] was “dose-dependent increase”.
`C[C@H]1[C@@H](O)O[C@@H]2O[C@@]3(C)CC[C@H]4[C@H](C)CC[C@@H]1[C@@]24OO3` [DHA, dihydroartemisinin]: the pIC50 in data set [1] is 4.97. Also, in data set [2] (HepG2 xenograft mice, alone or in combination with gemcitabine), the “toxic effects based on observations of bodyweight” value was “neither ART nor DHA causes any observable toxic effects”. For the same compound, the tumor growth inhibition in data set [2] (oral 50 mg/kg/d) turned out to be 36.1%; in data set [2] (oral 100 mg/kg/d), 60.6%; in data set [6] (DHA 10 mg/kg i.p., vs saline control), 24%; in data set [6] (DHA 25 mg/kg i.p.), 41%. In data set [6] (mice bearing A2780 or OVCAR-3 xenografts), the “host toxicity based on observation of body weight” value is given as “No other host toxicities are observed”. In addition, the “cells in the G1 phase” value in data set [3] (1 μmol/L) is reported as 68.11%; in data set [3] (10 μmol/L), 69.03%; in data set [3] (25 μmol/L) it was 70.50%; in data set [3] (50 μmol/L), 62.99%. In addition, the “increase in apoptosis versus control” value in data set [7] worked out at 17 fold. Besides, the “toxic effects (body weight)” value in data set [4] (Hep3B xenograft mice) is “Neither compound causes any observable toxic effects”.

As usually defined, the pIC50 is the IC50 on a negative log10 scale, so that one unit is a factor of ten.
